From patent publication US8895733B2 (Novartis AG, priority 2010, dated 2014)

target: T1, Nav 1.7 (Homo sapiens, UniProt Q15858); experiment: Whole-cell voltage clamp electrophysiology, automated patch clamp (marker c in Table of Examples); type: cell-based; settings: marker c = Automated patch clamp data; read-out: Nav 1.7 activity
T1 construct: expressed in transfected cells
Method in brief: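 A voltage protocol weighted toward inactivated-state block was used to test compounds on stably expressing cells, with pulses from −65 mV holding to −10 mV test and −100 mV. Currents came from whole-cell automated patch-clamp recordings, either IonWorks Quattro or other automated instruments, usually in perforated-patch mode.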

T1 sequence (Q15858 whole entry): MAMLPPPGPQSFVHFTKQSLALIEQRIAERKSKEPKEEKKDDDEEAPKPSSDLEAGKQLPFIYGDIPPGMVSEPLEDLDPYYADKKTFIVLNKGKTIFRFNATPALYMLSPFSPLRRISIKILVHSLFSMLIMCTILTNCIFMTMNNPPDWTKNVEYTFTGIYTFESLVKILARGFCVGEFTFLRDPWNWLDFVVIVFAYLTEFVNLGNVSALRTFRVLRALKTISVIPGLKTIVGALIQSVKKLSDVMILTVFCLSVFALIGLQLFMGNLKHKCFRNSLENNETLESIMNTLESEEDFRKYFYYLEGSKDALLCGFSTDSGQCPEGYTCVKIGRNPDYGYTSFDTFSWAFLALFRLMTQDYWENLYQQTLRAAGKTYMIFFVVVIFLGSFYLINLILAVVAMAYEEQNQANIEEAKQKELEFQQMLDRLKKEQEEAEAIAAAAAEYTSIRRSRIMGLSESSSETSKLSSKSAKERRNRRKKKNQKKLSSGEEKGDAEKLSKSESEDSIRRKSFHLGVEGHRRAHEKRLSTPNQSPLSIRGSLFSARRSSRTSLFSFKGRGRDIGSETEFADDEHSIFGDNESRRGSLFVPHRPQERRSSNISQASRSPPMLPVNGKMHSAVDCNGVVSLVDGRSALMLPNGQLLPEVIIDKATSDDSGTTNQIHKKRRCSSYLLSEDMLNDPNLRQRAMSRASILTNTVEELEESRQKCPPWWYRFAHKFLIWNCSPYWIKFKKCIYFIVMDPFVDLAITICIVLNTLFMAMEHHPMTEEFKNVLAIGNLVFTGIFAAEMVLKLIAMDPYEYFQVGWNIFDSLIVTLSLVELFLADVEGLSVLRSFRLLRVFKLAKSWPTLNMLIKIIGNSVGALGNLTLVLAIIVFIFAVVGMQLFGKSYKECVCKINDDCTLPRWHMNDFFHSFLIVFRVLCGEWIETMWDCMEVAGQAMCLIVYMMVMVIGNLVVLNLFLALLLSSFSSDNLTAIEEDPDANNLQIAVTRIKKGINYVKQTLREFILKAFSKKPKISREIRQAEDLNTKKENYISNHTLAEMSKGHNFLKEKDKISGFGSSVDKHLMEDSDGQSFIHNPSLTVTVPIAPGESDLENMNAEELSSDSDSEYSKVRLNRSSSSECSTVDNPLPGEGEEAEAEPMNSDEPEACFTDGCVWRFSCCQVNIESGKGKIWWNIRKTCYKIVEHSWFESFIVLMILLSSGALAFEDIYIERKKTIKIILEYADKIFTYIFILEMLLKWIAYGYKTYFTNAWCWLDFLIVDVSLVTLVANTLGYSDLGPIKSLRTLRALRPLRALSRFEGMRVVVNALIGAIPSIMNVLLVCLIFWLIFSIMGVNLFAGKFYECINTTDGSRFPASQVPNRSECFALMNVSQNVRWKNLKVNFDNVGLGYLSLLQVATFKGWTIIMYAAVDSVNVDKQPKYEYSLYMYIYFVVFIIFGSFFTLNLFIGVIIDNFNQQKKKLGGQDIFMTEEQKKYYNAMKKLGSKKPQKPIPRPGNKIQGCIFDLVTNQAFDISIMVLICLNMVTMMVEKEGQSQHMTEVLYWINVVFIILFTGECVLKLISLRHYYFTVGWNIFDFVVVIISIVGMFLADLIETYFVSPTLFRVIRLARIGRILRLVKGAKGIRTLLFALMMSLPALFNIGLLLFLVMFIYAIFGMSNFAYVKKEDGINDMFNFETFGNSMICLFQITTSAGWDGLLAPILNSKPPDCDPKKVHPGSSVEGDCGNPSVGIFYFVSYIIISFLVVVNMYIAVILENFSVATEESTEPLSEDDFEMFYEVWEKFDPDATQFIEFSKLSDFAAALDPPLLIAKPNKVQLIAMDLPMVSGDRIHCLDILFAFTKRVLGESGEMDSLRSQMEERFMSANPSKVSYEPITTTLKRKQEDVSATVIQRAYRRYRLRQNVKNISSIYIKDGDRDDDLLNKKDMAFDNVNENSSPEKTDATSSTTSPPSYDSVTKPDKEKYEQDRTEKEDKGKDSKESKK

IC50	Structure (SMILES)
8730 nM	COc1ccccc1Cc1nc(-c2nc(N)nc(N(C)c3ccccc3)n2)no1 [Example 199, 6-{5-[(2-methoxyphenyl)methyl]-1,2,4-oxadiazol-3-yl}-2-N-methyl-2-N-phenyl-1,3,5-triazine-2,4-diamine]
8590 nM	CCCS(=O)(=O)N1CCC(c2nc(-c3nc(N)nc(N(C)c4ccccc4)n3)no2)C1 (stereo not shown) [Example 200, 2-N-methyl-2-N-phenyl-6-{5-[1-(propane-1-sulfonyl)pyrrolidin-3-yl]-1,2,4-oxadiazol-3-yl}-1,3,5-triazine-2,4-diamine]
3290 nM	CC(C)S(=O)(=O)N1CCC(c2nc(-c3nc(N)nc(N(C)c4ccccc4)n3)no2)C1 (stereo not shown) [Example 201, 2-N-methyl-2-N-phenyl-6-{5-[1-(propane-2-sulfonyl)pyrrolidin-3-yl]-1,2,4-oxadiazol-3-yl}-1,3,5-triazine-2,4-diamine]
1790 nM	CN(c1ccccc1)c1nc(N)nc(-c2noc(C3CCN(S(=O)(=O)CC(F)(F)F)C3)n2)n1 (stereo not shown) [Example 202, 2-N-methyl-2-N-phenyl-6-(5-{1-[(2,2,2-trifluoroethane)sulfonyl]pyrrolidin-3-yl}-1,2,4-oxadiazol-3-yl)-1,3,5-triazine-2,4-diamine]
4560 nM	CN(c1ccccc1)c1nc(N)nc(-c2noc(C3CCN(S(=O)(=O)c4ccccc4)C3)n2)n1 (stereo not shown) [Example 203, 6-{5-[1-(benzenesulfonyl)pyrrolidin-3-yl]-1,2,4-oxadiazol-3-yl}-2-N-methyl-2-N-phenyl-1,3,5-triazine-2,4-diamine]
> 7830 nM	CN(c1ccccc1)c1nc(N)nc(-c2noc(C3CCN(CCC(F)(F)F)C3)n2)n1 (stereo not shown) [Example 204, 2-N-methyl-2-N-phenyl-6-{5-[1-(3,3,3-trifluoropropyl)pyrrolidin-3-yl]-1,2,4-oxadiazol-3-yl}-1,3,5-triazine-2,4-diamine]
1530 nM	CC(CC(F)(F)F)N1CCC(c2nc(-c3nc(N)nc(N(C)c4ccccc4)n3)no2)C1 (stereo not shown) [Example 205, 2-N-methyl-2-N-phenyl-6-{5-[1-(4,4,4-trifluorobutan-2-yl)pyrrolidin-3-yl]-1,2,4-oxadiazol-3-yl}-1,3,5-triazine-2,4-diamine]
17 nM	CC(OCc1ccc(-c2nc(-c3nc(N)nc(N(C)c4ccccc4)n3)no2)cn1)C(F)(F)F (stereo not shown) [Example 206, 2-N-methyl-2-N-phenyl-6-[5-(6-{[(1,1,1-trifluoropropan-2-yl)oxy]methyl}pyridin-3-yl)-1,2,4-oxadiazol-3-yl]-1,3,5-triazine-2,4-diamine]
113 nM	CN(c1ccccc1)c1nc(N)nc(-c2noc(-c3ccc(COCC4CC4)nc3)n2)n1 [Example 208, 6-(5-{6-[(cyclopropylmethoxy)methyl]pyridin-3-yl}-1,2,4-oxadiazol-3-yl)-2-N-methyl-2-N-phenyl-1,3,5-triazine-2,4-diamine]
74 nM	CC(OCC(F)(F)F)c1ccc(-c2nc(-c3nc(N)nc(N(C)c4ccccc4)n3)no2)cn1 (stereo not shown) [Example 209, 2-N-methyl-2-N-phenyl-6-(5-{6-[1-(2,2,2-trifluoroethoxy)ethyl]pyridin-3-yl}-1,2,4-oxadiazol-3-yl)-1,3,5-triazine-2,4-diamine]
33 nM	CC(OCc1ccc(-c2nc(-c3nc(N)nc(Nc4ccccc4)n3)no2)cn1)C(F)(F)F (stereo not shown) [Example 210, 2-N-phenyl-6-[5-(6-{[(1,1,1-trifluoropropan-2-yl)oxy]methyl}pyridin-3-yl)-1,2,4-oxadiazol-3-yl]-1,3,5-triazine-2,4-diamine]
44 nM	Nc1nc(Nc2ccccc2)nc(-c2noc(-c3ccc(COCC4CC4)nc3)n2)n1 [Example 211, 6-(5-{6-[(cyclopropylmethoxy)methyl]pyridin-3-yl}-1,2,4-oxadiazol-3-yl)-2-N-phenyl-1,3,5-triazine-2,4-diamine]
211 nM	CC(OCC(F)(F)F)c1ccc(-c2nc(-c3nc(N)nc(Nc4ccccc4)n3)no2)cn1 (stereo not shown) [Example 212, 2-N-phenyl-6-(5-{6-[1-(2,2,2-trifluoroethoxy)ethyl]pyridin-3-yl}-1,2,4-oxadiazol-3-yl)-1,3,5-triazine-2,4-diamine]
233 nM	Nc1nc(Nc2ccccc2)nc(-c2noc(N3CCC(COCC4CC4)CC3)n2)n1 [Example 214, 6-(5-{4-[(cyclopropylmethoxy)methyl]piperidin-1-yl}-1,2,4-oxadiazol-3-yl)-2-N-phenyl-1,3,5-triazine-2,4-diamine]

Structure (SMILES)	IC50
Nc1nc(Nc2ccccc2)nc(-c2noc(-c3ccc(COC4CCC4)nc3)n2)n1 [Example 213, 6-{5-[6-(cyclobutoxymethyl)pyridin-3-yl]-1,2,4-oxadiazol-3-yl}-2-N-phenyl-1,3,5-triazine-2,4-diamine]	67 nM
Nc1nc(Nc2ccccc2)nc(-c2noc(N3CCC(COC4CCC4)CC3)n2)n1 [Example 215, 6-{5-[4-(cyclobutoxymethyl)piperidin-1-yl]-1,2,4-oxadiazol-3-yl}-2-N-phenyl-1,3,5-triazine-2,4-diamine]	280 nM
CN(c1ccccc1)c1nc(N)nc(-c2noc(N3CCC(COC4CCC4)CC3)n2)n1 [Example 217, 6-{5-[4-(cyclobutoxymethyl)piperidin-1-yl]-1,2,4-oxadiazol-3-yl}-2-N-methyl-2-N-phenyl-1,3,5-triazine-2,4-diamine]	415 nM

same assay, conditions: marker c: Automated patch clamp data; read-out: Nav 1.7 activity

Structure (SMILES)	IC50
COC(=O)c1cccc(Nc2nc(N)nc(-c3noc(-c4ccc(OCC(F)(F)F)nc4)n3)n2)c1 [Example 182, methyl 3-[(4-amino-6-{5-[6-(2,2,2-trifluoroethoxy)pyridin-3-yl]-1,2,4-oxadiazol-3-yl}-1,3,5-triazin-2-yl)amino]benzoate]	8690 nM
CS(=O)(=O)c1cccc(Nc2nc(N)nc(-c3noc(-c4ccc(OCC(F)(F)F)nc4)n3)n2)c1 [Example 189, 2-N-(3-methanesulfonylphenyl)-6-{5-[6-(2,2,2-trifluoroethoxy)pyridin-3-yl]-1,2,4-oxadiazol-3-yl}-1,3,5-triazine-2,4-diamine]	287 nM
CCN(c1ccccc1)c1nc(N)nc(-c2noc(-c3ccccc3Cl)n2)n1 [Example 192, 6-[5-(2-chlorophenyl)-1,2,4-oxadiazol-3-yl]-2-N-ethyl-2-N-phenyl-1,3,5-triazine-2,4-diamine]	123 nM
CCN(c1ccccc1)c1nc(N)nc(-c2noc(-c3ccc(F)cc3Cl)n2)n1 [Example 193, 6-[5-(2-chloro-4-fluorophenyl)-1,2,4-oxadiazol-3-yl]-2-N-ethyl-2-N-phenyl-1,3,5-triazine-2,4-diamine]	83 nM
CCOc1ccccc1-c1nc(-c2nc(N)nc(N(CC)c3ccccc3)n2)no1 [Example 196, 6-[5-(2-ethoxyphenyl)-1,2,4-oxadiazol-3-yl]-2-N-ethyl-2-N-phenyl-1,3,5-triazine-2,4-diamine]	764 nM
CCN(c1ccccc1)c1nc(N)nc(-c2noc(-c3ccccc3OC(F)(F)F)n2)n1 [Example 198, 2-N-ethyl-2-N-phenyl-6-{5-[2-(trifluoromethoxy)phenyl]-1,2,4-oxadiazol-3-yl}-1,3,5-triazine-2,4-diamine]	777 nM

Now from value to molecule:

IC50	Structure (SMILES)
67 nM	CCOc1ccccc1-c1nc(-c2nc(N)nc(N(C)c3cccc(C)c3)n2)no1 [Example 183, 6-[5-(2-ethoxyphenyl)-1,2,4-oxadiazol-3-yl]-2-N-methyl-2-N-(3-methylphenyl)-1,3,5-triazine-2,4-diamine]
62 nM	COc1ccc(-c2nc(-c3nc(N)nc(N(C)c4cccc(C)c4)n3)no2)cc1 [Example 184, 6-[5-(4-methoxyphenyl)-1,2,4-oxadiazol-3-yl]-2-N-methyl-2-N-(3-methylphenyl)-1,3,5-triazine-2,4-diamine]
144 nM	COc1cccc(F)c1-c1nc(-c2nc(N)nc(N(C)c3cccc(C)c3)n2)no1 [Example 185, 6-[5-(2-fluoro-6-methoxyphenyl)-1,2,4-oxadiazol-3-yl]-2-N-methyl-2-N-(3-methylphenyl)-1,3,5-triazine-2,4-diamine]
87 nM	COc1ccc(F)cc1-c1nc(-c2nc(N)nc(N(C)c3cccc(C)c3)n2)no1 [Example 186]
458 nM	COc1cc(F)ccc1-c1nc(-c2nc(N)nc(N(C)c3cccc(C)c3)n2)no1 [Example 187, 6-[5-(4-fluoro-2-methoxyphenyl)-1,2,4-oxadiazol-3-yl]-2-N-methyl-2-N-(3-methylphenyl)-1,3,5-triazine-2,4-diamine]
7630 nM	COc1ccc(-c2nc(-c3nc(N)nc(N(C)c4cccc(C)c4)n3)no2)c(OC)c1 [Example 188, 6-[5-(2,4-dimethoxyphenyl)-1,2,4-oxadiazol-3-yl]-2-N-methyl-2-N-(3-methylphenyl)-1,3,5-triazine-2,4-diamine]
106 nM	CCN(c1ccccc1)c1nc(N)nc(-c2noc(-c3ccc(OC)cc3)n2)n1 [Example 190, 2-N-ethyl-6-[5-(4-methoxyphenyl)-1,2,4-oxadiazol-3-yl]-2-N-phenyl-1,3,5-triazine-2,4-diamine]
67 nM	CCN(c1ccccc1)c1nc(N)nc(-c2noc(-c3c(F)cccc3OC)n2)n1 [Example 191, 2-N-ethyl-6-[5-(2-fluoro-6-methoxyphenyl)-1,2,4-oxadiazol-3-yl]-2-N-phenyl-1,3,5-triazine-2,4-diamine]
843 nM	Cc1cccc(N(C)c2nc(N)nc(-c3noc(-c4ccccc4OC(F)(F)F)n3)n2)c1 [Example 194, 2-N-methyl-2-N-(3-methylphenyl)-6-{5-[2-(trifluoromethoxy)phenyl]-1,2,4-oxadiazol-3-yl}-1,3,5-triazine-2,4-diamine]
431 nM	Cc1cccc(N(C)c2nc(N)nc(-c3noc(-c4ccccc4Cl)n3)n2)c1 [Example 195, 6-[5-(2-chlorophenyl)-1,2,4-oxadiazol-3-yl]-2-N-methyl-2-N-(3-methylphenyl)-1,3,5-triazine-2,4-diamine]
571 nM	CCN(c1ccccc1)c1nc(N)nc(-c2noc(-c3cc(F)ccc3OC)n2)n1 [Example 197, 2-N-ethyl-6-[5-(5-fluoro-2-methoxyphenyl)-1,2,4-oxadiazol-3-yl]-2-N-phenyl-1,3,5-triazine-2,4-diamine]
